Results taken from US7977375B2, “Antibiotic and method of production thereof” (Helmholtz-Zentrum Für Infektionsforschung GmbH, priority 2004, dated 2011).
Converted amounts (≈) assume the structure as drawn. Like-named read-outs stand apart in the source and are kept apart here. Blank lines part the entries; values can stand above or below the compound they belong to.

Key:
[1] = test system: MRSA 2 (methicillin-resistant S. aureus, clinical isolate); test: agar diffusion method, inhibition zone; format: cell-based, Staphylococcus aureus; settings: Staphylococcus aureus
Protocol: (§1) The agar diffusion method employing Mueller-Hinton (MH) agar (Difco Laboratories) was used to determine effectiveness against bacteria and yeasts. Sterile paper disks (Schleicher & Schüell, Germany) were seeded with 10 μl crude extract or with a solution of purified macrolactin (final compound concentration on the disk 50 μg) and then placed on the surface of MH-agar plates that had been seeded beforehand with a suspension of overnight culture of the test microorganisms at a concentration of 10^5 cells/ml.

[2] = test system: MRSA 3 (methicillin-resistant S. aureus, clinical isolate); test: agar diffusion method, inhibition zone; format: cell-based, Staphylococcus aureus; settings: Staphylococcus aureus
Protocol: as §1

[3] = test system: S. aureus # (own collection, methicillin-sensitive control strain); test: agar diffusion method, inhibition zone; format: cell-based, Staphylococcus aureus; settings: Staphylococcus aureus
Protocol: as §1

[4] = test system: S. aureus DSMZ 1104; test: agar diffusion method, inhibition zone; format: cell-based, Staphylococcus aureus; settings: Staphylococcus aureus
Protocol: as §1

[5] = test system: E. faecalis ATCC 29212; test: agar diffusion method, inhibition zone; format: cell-based, Enterococcus faecalis; settings: Enterococcus faecalis
Protocol: as §1

[6] = test system: E. faecalis VRAS E305; test: agar diffusion method, inhibition zone; format: cell-based, Enterococcus faecalis; settings: Enterococcus faecalis
Protocol: as §1

[7] = test system: E. faecium VRAR E315; test: agar diffusion method, inhibition zone; format: cell-based, Enterococcus faecium; settings: Enterococcus faecium
Protocol: as §1

[8] = test system: S. aureus # (non-methicillin-resistant reference strain); test: MIC / MBC in liquid culture; format: cell-based, Staphylococcus aureus; settings: Staphylococcus aureus, read-out: MIC (minimal inhibitory concentration)
[9] = test system: MRSA 2; test: MIC / MBC in liquid culture; format: cell-based, Staphylococcus aureus; settings: Staphylococcus aureus, read-out: MIC (minimal inhibitory concentration)
[10] = test system: MRSA 3; test: MIC / MBC in liquid culture; format: cell-based, Staphylococcus aureus; settings: Staphylococcus aureus, read-out: MIC (minimal inhibitory concentration)
[11] = test system: E. faecalis ATCC 29212; test: MIC / MBC in liquid culture; format: cell-based, Enterococcus faecalis; settings: Enterococcus faecalis
[12] = test system: E. faecalis VRAS E305; test: MIC / MBC in liquid culture; format: cell-based, Enterococcus faecalis; settings: Enterococcus faecalis
[13] = test system: E. faecium VRAR E315; test: MIC / MBC in liquid culture; format: cell-based, Enterococcus faecium; settings: Enterococcus faecium
[14] = test system: B. cepacia SCV 141; test: agar diffusion method, inhibition zone; format: cell-based, Burkholderia cepacia; settings: Burkholderia cepacia, SCV141, MH agar, 18 hours at 37° C., per disk 10 μl crude extract, 50 μg macrolactin, 78 μg erythromycin, 10 μg ampicillin
Protocol: as §1
The B. cepacia strain used, which is a clinical isolate from a cystic fibrosis patient, forms small colonies (SCV 141).

[15] = test system: B. cepacia SCV 141; test: MIC / MBC in liquid culture; format: cell-based, Burkholderia cepacia; settings: Burkholderia cepacia, SCV141, read-out: MIC (minimal inhibitory concentration)
Excerpt: (§2) 7-O-malonyl macrolactin A was not effective against some of the gram-negative bacteria tested by the inventors.

[16] = test system: B. cepacia WT139; test: MIC / MBC in liquid culture; format: cell-based, Burkholderia cepacia; settings: Burkholderia cepacia, read-out: MIC (minimal inhibitory concentration)
Excerpt: as §2

[17] = MRSA, 18 h, read-out: Inhibition zone
[18] = MRSA 2, MH agar, 18 hours at 37° C., per disk 10 μl crude extract, 50 μg macrolactin, 78 μg erythromycin, 30 μg vancomycin, 10 μg ampicillin
[19] = MRSA 3, MH agar, 18 hours at 37° C., per disk 10 μl crude extract, 50 μg macrolactin, 78 μg erythromycin, 30 μg vancomycin, 10 μg ampicillin
[20] = S. aureus # own collection, MH agar, 18 hours at 37° C., per disk 10 μl crude extract, 50 μg macrolactin, 78 μg erythromycin, 30 μg vancomycin, 10 μg ampicillin
[21] = DSMZ1104, S. aureus DSMZ 1104, MH agar, 18 hours at 37° C., per disk 10 μl crude extract, 50 μg macrolactin, 78 μg erythromycin, 30 μg vancomycin, 10 μg ampicillin
[22] = ATCC29212, E. faecalis ATCC 29212, MH agar, 18 hours at 37° C., per disk 10 μl crude extract, 50 μg macrolactin, 78 μg erythromycin, 30 μg vancomycin, 10 μg ampicillin
[23] = VRASE305, E. faecalis VRAS E305, MH agar, 18 hours at 37° C., per disk 10 μl crude extract, 50 μg macrolactin, 78 μg erythromycin, 30 μg vancomycin, 10 μg ampicillin
[24] = VRARE315, E. faecium VRAR E315, MH agar, 18 hours at 37° C., per disk 10 μl crude extract, 50 μg macrolactin, 78 μg erythromycin, 30 μg vancomycin, 10 μg ampicillin
[25] = ATCC29212, E. faecalis ATCC 29212, read-out: MIC (minimal inhibitory concentration)
[26] = VRASE305, E. faecalis VRAS E305, read-out: MIC (minimal inhibitory concentration)
[27] = VRARE315, E. faecium VRAR E315, read-out: MIC (minimal inhibitory concentration)

Compound: CN[C@H](CC(C)C)C(=O)N[C@H]1C(=O)N[C@@H](CC(N)=O)C(=O)N[C@H]2C(=O)N[C@H]3C(=O)N[C@H](C(=O)N[C@H](C(=O)O)c4cc(O)cc(O)c4-c4cc3ccc4O)[C@H](O)c3ccc(c(Cl)c3)Oc3cc2cc(c3O[C@@H]2O[C@H](CO)[C@@H](O)[C@H](O)[C@H]2O[C@H]2C[C@](C)(N)[C@H](O)[C@H](C)O2)Oc2ccc(cc2Cl)[C@H]1O [Vancomycin, vancomycin]
- zone of inhibition at 30 µg/disc [1, 17]: 24 mm
- zone of inhibition at 30 µg/disc [2, 17]: 24 mm
- zone of inhibition at 30 µg/disc ([3]; 18 h, read-out: Inhibition zone): 27 mm
- zone of inhibition at 30 µg/disc ([4]; DSMZ1104, 18 h, read-out: Inhibition zone): 20 mm
- zone of inhibition at 30 µg/disc ([5]; ATCC29212, 18 h, read-out: Inhibition zone): 24 mm
- zone of inhibition at 30 µg/disc ([6]; VRASE305, 18 h, read-out: Inhibition zone): 0 mm
- zone of inhibition at 30 µg/disc ([7]; VRARE315, 18 h, read-out: Inhibition zone): 0 mm
- MIC [8]: 0.125 µg/mL (≈ 0.0863 µM)
- MIC ([9]; MRSA): 2 µg/mL (≈ 1.38 µM)
- MIC ([10]; MRSA): 1 µg/mL (≈ 0.69 µM)
- MIC ([11]; ATCC29212, read-out: MIC (minimal inhibitory concentration)): 2 µg/mL (≈ 1.38 µM)
- MIC ([12]; VRASE305, read-out: MIC (minimal inhibitory concentration)): > 128 µg/mL
- MIC ([13]; VRARE315, read-out: MIC (minimal inhibitory concentration)): > 128 µg/mL

- MIC ([8]; S. aureus #): 0.06 µg/mL (≈ 0.172 µM)
- MIC ([9]; MRSA 2): > 128 µg/mL
- MIC ([10]; MRSA 3): 64 µg/mL (≈ 183 µM)
- MIC [11, 25]: 0.5 µg/mL (≈ 1.43 µM)
- MIC [12, 26]: 0.5 µg/mL (≈ 1.43 µM)
- MIC [13, 27]: > 128 µg/mL
- MIC [15]: 128 µg/mL (≈ 366 µM)
- MIC [16]: > 128 µg/mL
Compound: CC1(C)S[C@@H]2[C@H](NC(=O)[C@H](N)c3ccccc3)C(=O)N2[C@H]1C(=O)O [Ampicillin, ampicillin]
- zone of inhibition at 10 µg/disc [1, 18]: 0 mm
- zone of inhibition at 10 µg/disc [2, 19]: 0 mm
- zone of inhibition at 10 µg/disc [3, 20]: 41 mm
- zone of inhibition at 10 µg/disc [4, 21]: 30 mm
- zone of inhibition at 10 µg/disc [5, 22]: 32 mm
- zone of inhibition at 10 µg/disc [6, 23]: 35 mm
- zone of inhibition at 10 µg/disc [7, 24]: 0 mm
- zone of inhibition at 10 µg/disc [14]: 0 mm

- MIC ([8]; S. aureus #): 0.06 µg/mL (≈ 0.0818 µM)
- MIC ([9]; MRSA 2): > 128 µg/mL
- MIC ([10]; MRSA 3): > 128 µg/mL
- MIC [11, 25]: 2 µg/mL (≈ 2.73 µM)
- MIC [12, 26]: 128 µg/mL (≈ 174 µM)
- MIC [13, 27]: 2 µg/mL (≈ 2.73 µM)
- MIC [15]: 128 µg/mL (≈ 174 µM)
- MIC [16]: > 128 µg/mL
Compound: CC[C@H]1OC(=O)[C@H](C)[C@@H](O[C@H]2C[C@@](C)(OC)[C@@H](O)[C@H](C)O2)[C@H](C)[C@@H](O[C@@H]2O[C@H](C)C[C@H](N(C)C)[C@H]2O)[C@](C)(O)C[C@@H](C)C(=O)[C@H](C)[C@@H](O)[C@]1(C)O [Erythromycin, erythromycin]
- zone of inhibition at 78 µg/disc [1, 18]: 0 mm
- zone of inhibition at 78 µg/disc [2, 19]: 0 mm
- zone of inhibition at 78 µg/disc [3, 20]: 40 mm
- zone of inhibition at 78 µg/disc [4, 21]: 30 mm
- zone of inhibition at 78 µg/disc [5, 22]: 25 mm
- zone of inhibition at 78 µg/disc [6, 23]: 0 mm
- zone of inhibition at 78 µg/disc [7, 24]: 25 mm
- zone of inhibition at 78 µg/disc [14]: 0 mm
